Test results taken from patent publication US12637424B2, “Pharmaceutical salt of an arylpyrrole derivative” (SENTINEL ONCOLOGY LIMITED, priority 2020, dated 2026).

How the values were obtained:
Kasumi-1 = experiment: Cancer cell line panel proliferation (CellTiter-Glo); format: cell-based; conditions: Kasumi-1, Blood/Leukaemia, 72 hours
Experimental: (§1) Screening against diverse cancer cell lines was performed to identify tumour types displaying sensitivity to atropisomers A-1 and A-2. A panel of 48 cancer-derived cell lines was screened in a high-throughput proliferation assay using dilutions of atropisomers A-1/A-2. Cell lines that were screened included those representing cancer of the pancreas, large intestine/colorectum, lung, brain and nerves, and lymphoma and leukaemia cell lines. Cell lines were treated with serial half-log dilutions of compound and assayed 72 hours later for proliferation using CellTiter-Glo Assay (Promega). IC50 values were calculated by fitting the dose-response data using a nonlinear regression model.

RKO = experiment: as above; format: cell-based; conditions: Large intestine/Colorectum, 72 hours
Experimental: as §1

HCT 116 = experiment: as above; format: cell-based; conditions: HCT 116, Large intestine/Colorectum, 72 hours
Experimental: as §1

LN-229 = experiment: as above; format: cell-based; conditions: LN-229, Brain&Nerves, 72 hours
Experimental: as §1

DOHH-2 = experiment: as above; format: cell-based; conditions: DOHH-2, Blood/Lymphoma, 72 hours
Experimental: as §1

Daudi = experiment: as above; format: cell-based; conditions: Blood/Lymphoma, 72 hours
Experimental: as §1

SW1088 = experiment: as above; format: cell-based; conditions: SW1088, Brain&Nerves, 72 hours
Experimental: as §1

SU-DHL-2 = experiment: as above; format: cell-based; conditions: SU-DHL-2, Blood/Lymphoma, 72 hours
Experimental: as §1

Toledo = experiment: as above; format: cell-based; conditions: Blood/Lymphoma, 72 hours
Experimental: as §1

NCI-H1792 = experiment: as above; format: cell-based; conditions: NCI-H1792, Lung, 72 hours
Experimental: as §1

ML-2 = experiment: as above; format: cell-based; conditions: ML-2, Blood/Leukaemia, 72 hours
Experimental: as §1

JeKo-1 = experiment: as above; format: cell-based; conditions: JeKo-1, Blood/Lymphoma, 72 hours
Experimental: as §1

NCI-H1299 = experiment: as above; format: cell-based; conditions: NCI-H1299, Lung, 72 hours
Experimental: as §1

Raji = experiment: as above; format: cell-based; conditions: Blood/Lymphoma, 72 hours
Experimental: as §1

NAMALWA = experiment: as above; format: cell-based; conditions: Blood/Lymphoma, 72 hours
Experimental: as §1

Daoy = experiment: as above; format: cell-based; conditions: Brain&Nerves, 72 hours
Experimental: as §1

AsPC-1 = experiment: as above; format: cell-based; conditions: AsPC-1, Pancreas, 72 hours
Experimental: as §1

GRANTA-519 = experiment: as above; format: cell-based; conditions: GRANTA-519, Blood/Lymphoma, 72 hours
Experimental: as §1

HCC44 = experiment: as above; format: cell-based; conditions: HCC44, Lung, 72 hours
Experimental: as §1

SK-MES-1 = experiment: as above; format: cell-based; conditions: SK-MES-1, Lung, 72 hours
Experimental: as §1

D283 Med = experiment: as above; format: cell-based; conditions: Brain&Nerves, 72 hours
Experimental: as §1

COLO 205 = experiment: as above; format: cell-based; conditions: COLO 205, Large intestine/Colorectum, 72 hours
Experimental: as §1

HBL-1 = experiment: as above; format: cell-based; conditions: HBL-1, Blood/Lymphoma, 72 hours
Experimental: as §1

MIA PaCa-2 = experiment: as above; format: cell-based; conditions: MIA PaCa-2, Pancreas, 72 hours
Experimental: as §1

HT-29 = experiment: as above; format: cell-based; conditions: HT-29, Large intestine/Colorectum, 72 hours
Experimental: as §1

JVM-2 = experiment: as above; format: cell-based; conditions: JVM-2, Blood/Lymphoma, 72 hours
Experimental: as §1

NCI-H1373 = experiment: as above; format: cell-based; conditions: NCI-H1373, Lung, 72 hours
Experimental: as §1

Panc 10.05 = experiment: as above; format: cell-based; conditions: Panc 10.05, Pancreas, 72 hours
Experimental: as §1

LoVo = experiment: as above; format: cell-based; conditions: Large intestine/Colorectum, 72 hours
Experimental: as §1

SU-DHL-6 = experiment: as above; format: cell-based; conditions: SU-DHL-6, Blood/Lymphoma, 72 hours
Experimental: as §1

U-2932 = experiment: as above; format: cell-based; conditions: U-2932, Blood/Lymphoma, 72 hours
Experimental: as §1

A-172 = experiment: as above; format: cell-based; conditions: A-172, Brain&Nerves, 72 hours
Experimental: as §1

U118 MG = experiment: as above; format: cell-based; conditions: Brain&Nerves, 72 hours
Experimental: as §1

Z-138 = experiment: as above; format: cell-based; conditions: Z-138, Blood/Lymphoma, 72 hours
Experimental: as §1

[1] = Chiral stability (interconversion) of isolated atropisomers in ethanol; format: physicochemical; conditions: for % ee of sample @ 40° C. / % ee sample @ 80° C.: ethanol; for interconversion / racemization of atropisomers: heating for 10 days at 40° C. and 80° C.
Experimental: To assess the interconversion of atropisomer A-1 and atropisomer A-2, chiral stability was monitored at 40° C. and 80° C. […] 1. 2×1 mg of pure atropisomer was dissolved in 1 mL of ethanol in a sealed-dram vial. • 2. One set of vials was heated at 40° C. and another set at 80° C. • 3. At specified time-points a 20 μL aliquot from each stock solution (1 mL) was taken and quenched into a HPLC vial containing a 80 μL solution of hexane:ethanol; 80:20 to afford a final concentration of […] and the sample was analysed by chiral HPLC • 4. Analysis was carried out at the following time-points: 0 h, 24 h, 48 h, 72 h, 96 h and 240 h for the samples kept at 40° C. and 24 h, 96 h and 240 h for the samples kept at 80° C. using chiral HPLC method 5

## CN(C)CCNC(=O)c1ccc(-c2ccc(-c3ccc(Cl)cc3)n2-c2ccccc2C(F)(F)F)cc1 (single isomer, unassigned; atropisomer a) [Atropisomer A-1]
Kasumi-1
  IC50: 5.13 µM
RKO
  IC50: 6.17 µM
HCT 116
  IC50: 7.36 µM
LN-229
  IC50: 7.37 µM
DOHH-2
  IC50: 5.64 µM
Daudi
  IC50: 7.17 µM
SW1088
  IC50: 8.49 µM
SU-DHL-2
  IC50: 7.01 µM
Toledo
  IC50: > 10 µM
NCI-H1792
  IC50: 7.73 µM
ML-2
  IC50: 4.01 µM
JeKo-1
  IC50: 7.94 µM
NCI-H1299
  IC50: 8.25 µM
Raji
  IC50: 3.91 µM
NAMALWA
  IC50: 7.05 µM
Daoy
  IC50: 7 µM
AsPC-1
  IC50: > 10 µM
GRANTA-519
  IC50: 7.42 µM
HCC44
  IC50: 8.26 µM
SK-MES-1
  IC50: 7.78 µM
D283 Med
  IC50: 9.26 µM
COLO 205
  IC50: 6.75 µM
HBL-1
  IC50: 9.94 µM
MIA PaCa-2
  IC50: 9.17 µM
HT-29
  IC50: 4.53 µM
JVM-2
  IC50: 4.71 µM
NCI-H1373
  IC50: > 10 µM
Panc 10.05
  IC50: 9 µM
LoVo
  IC50: 8.36 µM
SU-DHL-6
  IC50: 3.98 µM
U-2932
  IC50: 4.47 µM
A-172
  IC50: 7.07 µM
U118 MG
  IC50: 7.6 µM
Z-138
  IC50: 7.04 µM
[1]; 0 h
  % ee of sample @ 40° C.: 100 % ee
  % ee sample @ 80° C.: 100 % ee
[1]; 24 h
  % ee of sample @ 40° C.: 100 % ee
  % ee sample @ 80° C.: 100 % ee
[1]; 48 h
  % ee of sample @ 40° C.: 100 % ee
[1]; 72 h
  % ee of sample @ 40° C.: 100 % ee
[1]; 96 h
  % ee of sample @ 40° C.: 100 % ee
  % ee sample @ 80° C.: 100 % ee
[1]; 10 days
  % ee of sample @ 40° C.: 100 % ee
  % ee sample @ 80° C.: 100 % ee
[1]
  interconversion / racemization of atropisomers: no interconversion was observed

## CN(C)CCNC(=O)c1ccc(-c2ccc(-c3ccc(Cl)cc3)n2-c2ccccc2C(F)(F)F)cc1 (single isomer, unassigned) [Atropisomer A-2]
Kasumi-1; Homo sapiens
  IC50: 0.33 µM
RKO; Homo sapiens
  IC50: 0.16 µM
HCT 116; Homo sapiens
  IC50: 0.23 µM
LN-229; Homo sapiens
  IC50: 0.31 µM
DOHH-2; Homo sapiens
  IC50: 0.23 µM
Daudi; Homo sapiens
  IC50: 0.39 µM
SW1088; Homo sapiens
  IC50: 0.77 µM
SU-DHL-2; Homo sapiens
  IC50: 0.2 µM
Toledo; Homo sapiens
  IC50: 0.88 µM
NCI-H1792; Homo sapiens
  IC50: 0.25 µM
ML-2; Homo sapiens
  IC50: 0.18 µM
JeKo-1; Homo sapiens
  IC50: 0.19 µM
NCI-H1299; Homo sapiens
  IC50: 0.37 µM
Raji; Homo sapiens
  IC50: 0.36 µM
NAMALWA
  IC50: 0.25 µM
Daoy; Homo sapiens
  IC50: 0.18 µM
AsPC-1; Homo sapiens, ASPC1
  IC50: 2.9 µM
GRANTA-519; Homo sapiens
  IC50: 0.22 µM
HCC44; Homo sapiens
  IC50: 0.48 µM
SK-MES-1; Homo sapiens
  IC50: 0.36 µM
D283 Med; Homo sapiens
  IC50: 0.31 µM
COLO 205; Homo sapiens
  IC50: 0.38 µM
HBL-1; HBL1
  IC50: 0.66 µM
MIA PaCa-2; Homo sapiens
  IC50: 0.33 µM
HT-29; Homo sapiens
  IC50: 0.45 µM
JVM-2; Homo sapiens
  IC50: 0.38 µM
NCI-H1373; Homo sapiens
  IC50: 3.21 µM
Panc 10.05; Homo sapiens, Panc1005
  IC50: 1.14 µM
LoVo; Homo sapiens
  IC50: 0.54 µM
SU-DHL-6; Homo sapiens
  IC50: 0.26 µM
U-2932; Homo sapiens, U2932
  IC50: 0.28 µM
A-172; Homo sapiens
  IC50: 0.34 µM
U118 MG; Homo sapiens, U-118-MG
  IC50: 0.47 µM
Z-138; Homo sapiens
  IC50: 0.21 µM
[1]; 0 h
  % ee of sample @ 40° C.: 97.20 % ee
  % ee sample @ 80° C.: 97.20 % ee
[1]; 24 h
  % ee of sample @ 40° C.: 97.34 % ee
  % ee sample @ 80° C.: 95.62 % ee
[1]; 48 h
  % ee of sample @ 40° C.: 97.30 % ee
[1]; 72 h
  % ee of sample @ 40° C.: 97.24 % ee
[1]; 96 h
  % ee of sample @ 40° C.: 97.14 % ee
  % ee sample @ 80° C.: 96.62 % ee
[1]; 10 days
  % ee of sample @ 40° C.: 97.46 % ee
  % ee sample @ 80° C.: 97.12 % ee
[1]
  interconversion / racemization of atropisomers: no interconversion was observed
